Experimental data from patent publication US20100004267A1, “LIQUID PREPARATION” (ASUBIO PHARMA CO., LTD., priority 2006, published 2010).

Tests used:
[1] = Examination on prevention of light decomposition (Test example 5); format: physicochemical
Procedure: To 800 mL of purified water, 100 g of Captisol (available from CyDex Inc.) serving as a solubilizing agent, 1 g of sodium bisulfite (available from JUNSEI CHEMICAL) serving as an antioxidant, and 5 g of SUN N8075 were sequentially dissolved, and the volume was adjusted to precisely 1,000 mL with purified water, and filtered under reduced pressure. Then each 20 mL of the solution was filled into a colorless ampule (Silicoat ampule, white, 20 mL capacity, available from FUJI GLASS CO., LTD.) and a brown ampule (Silicoat ampule, brown, 20 mL capacity, available from FUJI GLASS CO., LTD.), and then the ampule was sealed. Using autoclave (FLC-M09S30WZ, available from SAKURA SEIKI Co., Ltd.), autoclave sterilization was conducted in a setting condition: 121° C./24 minutes.
A sample of each of these ampules was stored under D65 lamp 2,000 Lux, and irradiated with 40, 80, 120×10^4 Lux, and then SUN N8075 related substances were measured with a HPLC device. The related substances were calculated as a peak ratio of the total related substances, relative to SUN N8075 peak area.
To 150 mL of purified water, a predetermined amount (none, 0.05 g, 0.1 g and 0.2 g) of sodium bisulfite (available from JUNSEI CHEMICAL) serving as an antioxidant, and 1 g of SUN N8075 were sequentially dissolved, and the volume was adjusted to precisely 200 mL with purified water. After filtering under reduced pressure, the solution was bubbled with nitrogen gas for 5 minutes. Then 20 mL of the solution was immediately filled into a brown ampule (Silicoat ampule, brown, 20 mL capacity, available from FUJI GLASS CO., LTD.) having subjected to nitrogen gas replacement, and then the ampule was sealed. Using autoclave (FLC-M09S30WZ, available from SAKURA SEIKI Co., Ltd.), autoclave sterilization was conducted in a setting condition: 121° C./24 minutes.
A sample of each of these ampules was stored under D65 lamp 2,000 Lux, and irradiated with 40×10^4 Lux, and then SUN N8075 related substances were measured with a HPLC device. The related substances were calculated as a peak ratio of the total related substances, relative to SUN N8075 peak area.
As a control sample, 1 g of SUN N8075 was dissolved into 150 mL of purified water, and the volume was adjusted precisely to 200 mL with purified water. Then the solution was filtered under reduced pressure, and bubbled with nitrogen gas for 5 minutes. Then 20 mL of the solution was immediately filled into a brown ampule (Silicoat ampule, brown, 20 mL capacity, available from FUJI GLASS CO., LTD.) replaced with nitrogen gas, and then the ampule was sealed.
This was prepared as a control sample at the start of the test, and SUN N8075 related substances were measured in the similar manner.

[2] = Reduction in surface activity in SUN N8075 aqueous solution (Test example 7); format: physicochemical; set-up: key: A: In 20 minutes; B: In 60 minutes; C: 60 minutes to 3 days; D: Comparable to Control
Procedure: (§1) Into each test compound solution which was prepared in advance to achieve each adding concentration shown in the Table, SUN N8075 was added and dissolved so that the concentration thereof was 5 mg/mL, and the pH value was adjusted to 3 to 4 as appropriate by hydrochloric acid to prepare a sample solution.
(§2) Each 10 mL of sample solution was put into a 10-mL stoppered test tube, and shaken 30 strokes vertically by hand and allowed to stand upright, and under room diffused light, appearance of sample solution after shaking, foaming property (foaming quantity), defoaming time, post standing observation (after standing for 3 days or more) were evaluated.
(§3) As a control, an aqueous solution containing no test substance but containing 5 mg/mL of SUN N8075 was examined in a similar manner.

[3] = as above; format: physicochemical; set-up: key: A: Much less foaming than Control; B: Clearly less foaming than Control; Slightly less foaming than Control; D: Comparable to Control; E: More foaming than Control
Procedure: as §1, §2, §3

aorta of rat = assay: Blood vessel stimulus and precipitation at administration site (Test example 2); format: in vivo
Procedure: Saline, a solution in saline to which 0.1% of Tween80 was added, and a solution in saline to which 0.5, 1.0, 2.0 or 3.0% of β-cyclodextrin sulfobutyl ether sodium salt dissolving various concentrations described in Table 2 below of SUN N8075 were prepared, and administered to aorta of rat, and precipitation of SUN N8075 and presence of stimulus (blood vessel stimulus) on tissues at the site of administration were evaluated.

[4] = Control: without sodium bisulfite, brown ampule, Start
[5] = N2 gas replacement, sodium bisulfite 0.05%, brown ampule, irradiation 40 ×10^4 LUX
[6] = N2 gas replacement, sodium bisulfite 0.1%, brown ampule, irradiation 40 ×10^4 LUX
[7] = N2 gas replacement, sodium bisulfite […], brown ampule, irradiation 40 ×10^4 LUX
[8] = N2 gas replacement, without sodium bisulfite, brown ampule, irradiation 40 ×10^4 LUX
[9] = without N2 gas replacement, sodium bisulfite 0.1%, Captisol 10%, brown ampule, irradiation 40 ×10^4 LUX
[10] = without N2 gas replacement, sodium bisulfite 0.1%, Captisol 10%, brown ampule, irradiation 80 ×10^4 LUX
[11] = without N2 gas replacement, sodium bisulfite 0.1%, Captisol 10%, brown ampule, irradiation 120 ×10^4 LUX
[12] = without N2 gas replacement, sodium bisulfite 0.1%, Captisol 10%, colorless ampule, irradiation 40 ×10^4 LUX
[13] = without N2 gas replacement, sodium bisulfite 0.1%, Captisol 10%, colorless ampule, irradiation 80 ×10^4 LUX
[14] = without N2 gas replacement, sodium bisulfite 0.1%, Captisol 10%, colorless ampule, irradiation 120 ×10^4 LUX
[15] = 0.1% Tween80 in saline, drug conc. 0.23 mg/mL, 72 hour
[16] = 0.1% Tween80 in saline, drug conc. 0.7 mg/mL, 72 hour
[17] = 0.5% Captisol in saline, drug conc. 0.7 mg/mL, 24 hour
[18] = 1.0% Captisol in saline, drug conc. 0.7 mg/mL, 24 hour
[19] = 2.0% Captisol in saline, drug conc. 0.7 mg/mL, 24 hour
[20] = 3.0% Captisol in saline, drug conc. 0.23 mg/mL, 72 hour
[21] = 3.0% Captisol in saline, drug conc. 0.7 mg/mL, 72 hour
[22] = no solubilizing agent in saline, drug conc. 0.23 mg/mL, 72 hour
[23] = no solubilizing agent in saline, drug conc. 0.7 mg/mL, 72 hour
[24] = no solubilizing agent in saline, drug conc. 2.3 mg/mL, 72 hour

SMILES: Cc1cc(OC[C@@H](O)CN2CCN(c3ccc(Cc4ccc(F)cc4)cc3)CC2)c(C)c(C)c1N [SUN N8075, (2S)-1-(4-amino-2,3,5-trimethylphenoxy)-3-{4-[4-(4-fluorobenzyl)phenyl]-1-piperazinyl}-2-propanol dimethane sulfonate]
- Related Substance Peak ratio [1, 4]: 0.629
- SUN N8075 Peak ratio [1, 4]: 99.37
- Related Substance Peak ratio [1, 5]: 0.608
- SUN N8075 Peak ratio [1, 5]: 99.39
- Related Substance Peak ratio [1, 6]: 0.567
- SUN N8075 Peak ratio [1, 6]: 99.43
- Related Substance Peak ratio [1, 7]: 0.581
- SUN N8075 Peak ratio [1, 7]: 99.42
- Related Substance Peak ratio [1, 8]: 0.967
- SUN N8075 Peak ratio [1, 8]: 99.03
- Related Substance Peak ratio [1, 9]: 1.140
- SUN N8075 Peak ratio [1, 9]: 98.86
- Related Substance Peak ratio [1, 10]: 1.301
- SUN N8075 Peak ratio [1, 10]: 98.70
- Related Substance Peak ratio [1, 11]: 1.750
- SUN N8075 Peak ratio [1, 11]: 98.25
- Related Substance Peak ratio [1, 12]: 4.552
- SUN N8075 Peak ratio [1, 12]: 95.45
- Related Substance Peak ratio [1, 13]: 4.953
- SUN N8075 Peak ratio [1, 13]: 95.05
- Related Substance Peak ratio [1, 14]: 5.987
- SUN N8075 Peak ratio [1, 14]: 94.01
- Defoaming time ([2]; Chlorobutanol 0.50%): C
- Defoaming time ([2]; Chlorobutanol […]): C
- Defoaming time ([2]; Ethanol 1.00%): C
- Defoaming time ([2]; Glycine 100 mM): C
- Defoaming time ([2]; Meglumine 25 mM): C
- Defoaming time ([2]; Methane sulfonic acid 15 mM): C
- Defoaming time ([2]; Propylene glycol 1.00%): C
- Defoaming time ([2]; Sodium L-glutamate 30 mM): C
- Defoaming time ([2]; Sodium chloride 50 mM): C
- Defoaming time ([3]; Chlorobutanol 0.10%): D
- Defoaming time ([3]; Sodium chloride 25 mM): D
- Blood vessel stimulation (aorta of rat; [15]): Detected
- Precipitation at administration site (aorta of rat; [15]): None*^2
- Blood vessel stimulation (aorta of rat; [16]): Detected
- Precipitation at administration site (aorta of rat; [16]): None*^2
- Blood vessel stimulation (aorta of rat; [17]): None
- Precipitation at administration site (aorta of rat; [17]): None*^2
- Blood vessel stimulation (aorta of rat; [18]): None
- Precipitation at administration site (aorta of rat; [18]): None*^2
- Blood vessel stimulation (aorta of rat; [19]): None
- Precipitation at administration site (aorta of rat; [19]): None*^2
- Blood vessel stimulation (aorta of rat; [20]): None
- Precipitation at administration site (aorta of rat; [20]): None*^2
- Blood vessel stimulation (aorta of rat; [21]): None
- Precipitation at administration site (aorta of rat; [21]): None*^2
- Blood vessel stimulation (aorta of rat; [22]): Detected
- Precipitation at administration site (aorta of rat; [22]): Detected*^1
- Blood vessel stimulation (aorta of rat; [23]): Detected
- Precipitation at administration site (aorta of rat; [23]): Detected*^1
- Blood vessel stimulation (aorta of rat; [24]): Detected
- Precipitation at administration site (aorta of rat; [24]): Detected*^1
